The values below are quoted from earlier work in patent publication US20140363484A1, “FIBROUS BIO-DEGRADABLE POLYMERIC WAFERS SYSTEM FOR THE LOCAL DELIVERY OF THERAPEUTIC AGENTS IN COMBINATIONS” (Amrita Vishwa Vidyapeetham, priority 2012, published 2014).

For this series the following is noted: under physiological conditions.

On to `Cn1nnc2c(C(N)=O)ncn2c1=O` [temozolomide], for which the half-life is 1.8 h.

In general, half-life refers to the time needed for the level to fall by half in the phase considered.
